Experimental data taken from PMC8800111 (The Journal of Biological Chemistry, 2021).
In brackets after ≈: the same amount, converted by molar mass.

Legend:
[1] = system: STAT3 transcriptional activity in U3A cells; assay: STAT3-dependent luciferase reporter assay; assay type: cell-based, human
Procedure: STAT3-dependent luciferase activity was then used as a measure of STAT3 transcriptional activity.
(§1) Cells were stimulated with 10 ng/ml interleukin 6 (Peprotech) or 10 ng/ml OSM (Peprotech). Cells were stimulated for 15 min for whole cell lysate immunoblotting, 60 to 90 min for qRT–PCR, and 5 to 6 h for luciferase reporter assays.
U3A cells (3 × 10^3) were plated in white opaque 96-well plates and allowed to adhere overnight. For siRNA-mediated knockdown, cells were left in the incubator for 48 h. For drug-mediated inhibition, cells were pretreated with compound for 1 h. Cells were then stimulated with cytokine for 5 to 6 h to activate STAT3. Luciferase activity was detected using the Bright-Glo Luciferase Assay System (Promega) and quantitated using a Luminoskan Ascent Microplate Reader (Labsystems).

[2] = system: STAT3 target genes in U3A cells; assay: STAT3 target gene expression by qRT-PCR in U3A cells; assay type: cell-based, human
[3] = system: STAT3 target genes in SKBR3 cells; assay: STAT3 target gene expression by qRT-PCR in SKBR3 cells; assay type: cell-based, human; settings: 300 μg/ml folinic acid
Procedure: as §1
Total RNA was extracted from cells using the RNeasy Mini Kit (Qiagen). Complementary DNA was generated using the TaqMan Reverse Transcription Reagents (Invitrogen). qPCR was performed in triplicate or quadruplicate using the Power SYBR Green PCR Master Mix (Invitrogen) on a 7500 Real-Time PCR System (Applied Biosystems) or a QuantStudio 6 Flex Real-Time PCR System (Applied Biosystems). Specificity of amplification was confirmed by melting curve analysis. Cycle threshold (CT) values for target genes were normalized to the endogenous reference gene GAPDH. Primer sequences (Table S3) were designed from the University of California Santa Cruz genome browser reference mRNA sequences using Primer3 ([43]).

MDA-MB-468 cells = assay: Viability assay (CellTiter-Glo, number of viable cells); assay type: cell-based, human; settings: 300 μg/ml folinic acid, 48 h
Procedure: We specifically hypothesized that folinic acid would prevent pyrimethamine-mediated loss of viability and loss of STAT3 transcriptional activity by bypassing DHFR and restoring the folate-dependent processes required for STAT3 transcriptional activity. […] Since MDA-MB-468 cells are dependent on STAT3 activity for survival, loss of viability can reflect STAT3 inhibition.
Cells (3–5 × 10^3) were plated in white opaque 96-well plates. The next day, cells were treated as indicated. ATP levels were detected at the indicated time points as a proxy for number of viable cells using the CellTiter-Glo Luminescent Cell Viability Assay (Promega). Luminescence was measured using a Luminoskan Ascent Microplate Reader (Labsystems).

[4] = system: STAT3 target genes in MDA-MB-468 cells; assay: STAT3 target gene expression by qRT-PCR in MDA-MB-468 cells; assay type: cell-based, human; settings: MDA-MB-468, 10 μM, 24 h
[5] = Solubility limit of folic acid in cell experiments; assay type: physicochemical; settings: culture media; read-out: maximum concentration testable because of solubility limitations
[6] = system: pSTAT3 in MDA-MB-468 cells; assay: STAT3 tyrosine phosphorylation by immunoblotting; assay type: cell-based, human; settings: 24 h, immunoblot
[7] = system: polar metabolites of MDA-MB-468 cells; assay: LC/MS-based metabolite profiling; assay type: cell-based, human; settings: MDA-MB-468, 24 h, 10 μM pyrimethamine or 0.05 μM methotrexate

Compound: Nc1nc(=O)c2c([nH]1)NCC(CNc1ccc(C(=O)N[C@@H](CCC(=O)O)C(=O)O)cc1)N2C=O (mixture of isomers) [folinic acid]
- rescue of the effect of methotrexate on STAT3-dependent luciferase ([1]; 1 μM methotrexate): able to rescue
- effect on TG101-mediated loss of STAT3-dependent luciferase ([1]; 10 μM TG101): no effect
- effect on the ability of pyrimethamine to inhibit OSM-stimulated STAT3 transcriptional activity ([1]; 10 μM pyrimethamine, tested concentrations of folate): significantly reduced
- effect on pyrimethamine-mediated loss of OSM-stimulated BCL6 expression ([2]; 300 μg/ml folinic acid): completely prevented
- effect on pyrimethamine-mediated loss of OSM-stimulated BCL6 expression [3]: partially prevented
- effect on TG101-dependent loss of viable cells (MDA-MB-468 cells): very little effect
- effect on pyrimethamine-dependent and methotrexate-dependent decreases in the number of viable cells (MDA-MB-468 cells): almost completely prevented

Compound: Cc1cnc(Nc2ccc(OCCN3CCCC3)cc2)nc1Nc1cccc(S(=O)(=O)NC(C)(C)C)c1 [TG101, TG101348]
- SOCS3 expression in the presence of folinic acid ([4]; 300 μg/ml folinic acid): still reduced
- SOCS3 expression in the absence of folinic acid [4]: significantly reduced

Compound: Nc1nc2ncc(CNc3ccc(C(=O)N[C@@H](CCC(=O)O)C(=O)O)cc3)nc2c(=O)[nH]1 [folic acid]
- solubility [5]: 10 µg/mL (≈ 22.7 µM)

Compound: CN(Cc1cnc2nc(N)nc(N)c2n1)c1ccc(C(=O)N[C@@H](CCC(=O)O)C(=O)O)cc1 [methotrexate]
- OSM-stimulated STAT3 activity (luciferase) ([1]; 0.5 and 1 μM, 1 h pretreatment, OSM 5 h): decreased
- OSM-stimulated expression of BCL6 and STAT3 ([2]; 1 μM 1 h, 10 ng/ml OSM 90 min): significantly reduced
- total / constitutive STAT3 tyrosine phosphorylation (pSTAT3) [6]: decrease
- deoxyuridine monophosphate level compared with DMSO or ruxolitinib [7]: significantly accumulated
- purine synthesis intermediates 5-aminoimidazole-4-carboxamide ribonucleotide and glycineamide ribonucleotide [7]: significant increase

Compound: Cc1cn([C@H]2C[C@H](O)[C@@H](CO)O2)c(=O)[nH]c1=O [thymidine]
- effect on pyrimethamine inhibition of STAT3 transcriptional activity (viable cells, luciferase, target genes) ([1]; thymidine added with 10 μM pyrimethamine): reduced the ability
- rescue of methotrexate-mediated loss of STAT3 activity ([1]; thymidine added with methotrexate): unable to rescue
